Experimental data reported in patent publication US4621081A, “Cephalosporin antibiotics” (Glaxo Group Limited, priority 1978, dated 1986).

What was measured:
[1] = Bactericidal action relative to minimum inhibitory concentration; format: cell-based
[2] = Effect of human serum on antibacterial properties; format: cell-based
[3] = Acute toxicity tests in mice; conditions: mouse, in vivo
[4] = Distribution in the bodies of small rodents after subcutaneous injection; format: in vivo
Nephrotoxicity in rats = format: in vivo; conditions: dosages of 2.0 g/kg
[5] = tested on: strains of Pseudomonas aeruginosa; experiment: Experimental infections in mice with strains of Pseudomonas aeruginosa; format: in vivo; conditions: experimental infection
[6] = Effect of increased inocula; format: cell-based
[7] = General (broad spectrum) antibiotic activity; format: cell-based
[8] = tested on: strains of Staphylococcus aureas; experiment: Activity against strains of Staphylococcus aureas; format: cell-based
strains of Pseudomonas = experiment: Activity against strains of Pseudomonas; format: cell-based
[9] = Serum levels and serum half-life in primates after intramuscular injection; format: in vivo
gram-negative bacteria = experiment: Experimental infections in mice with gram-negative bacteria; format: in vivo

In the case of `C[n+]1ccc(SCC2=C(C(=O)[O-])N3C(=O)[C@@H](NC(=O)/C(=N\OC4(C(=O)O)CCC4)c4csc(N)n4)[C@H]3SC2)cc1` [compound of formula (Ib), (6R,7R)-7-[(Z)-2-(2-aminothiazol-4-yl)-2-(1-carboxycyclobut-1-oxyimino)acetamido]-3-[(1-methylpyridinium-4-yl)-thiomethyl]ceph-3-em-4-carboxylate], the “bactericidal at concentrations close to the minimum inhibitory concentration” value [1] was “rapidly bactericidal”, the “antibacterial properties impaired by human serum” value [2] was “not impaired” and the LD50 [3] was over 1000 mg/kg. For the same molecule, the “distribution in the bodies of small rodents” value [4] was “well distributed”, the “therapeutic levels in small rodents” value [4] was “useful therapeutic levels” and the nephrotoxicity in rats (Nephrotoxicity in rats) was “No nephrotoxicity was observed”. For the same molecule, the “protection against strains of Pseudomonas aeruginosa” value [5] was “excellent protection”, the “protection compared with the treatment with an aminoglycoside such as amikacin” value ([5]; versus an aminoglycoside such as amikacin) was “comparable” and the “effect of increased inocula against the compound” value [6] was “low”. For the same molecule, the “general antibiotic properties / antibiotic activity” value [7] was “possesses to an outstanding extent the general antibiotic properties”, the “activity against strains of Staphylococcus aureas” value [8] was “useful activity” and the “activity against strains of Pseudomonas” value (strains of Pseudomonas) was “excellent activity”. For the same molecule, the “half-life in man (probability, from serum half-life in primates)” value ([9]; man, inferred from serum half-life in primates) was “comparatively long half-life”, the “serum levels in primates” value ([9]; primates, intramuscular injection) was “high and long lasting serum levels” and the “treatment of experimental infections in mice with gram-negative bacteria” value (gram-negative bacteria) was “successfully treated”.
For `C[n+]1ccc(SCC2=C(C(=O)[O-])N3C(=O)[C@@H](NC(=O)/C(=N\OC(C)(C)C(=O)O)c4csc(N)n4)[C@H]3SC2)cc1` [(6R,7R)-7-[(Z)-2-(2-aminothiazol-4-yl)-2-(2-carboxyprop-2-oxyimino)acetamido]-3-[(1-methylpyridinium-4-yl)-thiomethyl]ceph-3-em-4-carboxylate], the “general antibiotic properties / antibiotic activity” value [7] was “not dissimilar properties to the compound of formula (Ib)”.
